Laboratory results from ChEMBL document CHEMBL1667790, “Synthesis and antioxidant activity of long chain alkyl hydroxycinnamates” (Eur J Med Chem, 2011).
pIC50: −log10 of the molar value.

Experiments:
[1] = system: Radical scavenging activity; assay: Antioxidant activity assessed as residual DPPH radical scavenging activity after 45 mins by spectrophotometrically; format: functional
[2] = Antioxidant activity assessed as trolox equivalents of ABTS radical scavenging activity by TEAC assay; format: functional

Row | SMILES | pIC50 [1] | Activity [2]
1 | COc1cc(/C=C/C(=O)O)ccc1O [FERULATE] | 3.95 | 1.76 mmol
2 | O=C(O)/C=C/c1ccc(O)c(O)c1 [CAFFEIC ACID] | 4.47 | 0.95 mmol
3 | CCCCCCCCCCCCCCOC(=O)/C=C/c1cc(OC)c(O)c(OC)c1 | 4.11 | 1.18 mmol
4 | O=C(O)/C=C/c1ccc(O)cc1 [COUMARIC ACID] | < 4.00 | 
5 | CCCCCCCCCCCCCCOC(=O)/C=C/c1ccc(O)cc1 | < 4.00 | 
6 | CCCCCCCCCCCCCCCCOC(=O)/C=C/c1ccc(O)c(O)c1 | 4.48 | 0.96 mmol

Continued, in another order:

Row | pIC50 [1] | SMILES | Activity [2]
7 | 4.11 | CCCCCCCCCCCCCCCCCCOC(=O)/C=C/c1cc(OC)c(O)c(OC)c1 | 1.16 mmol
8 | 3.96 | CCCCCCCCCCCCCCOC(=O)/C=C/c1ccc(O)c(OC)c1 | 1.66 mmol
9 | 4.18 | COc1cc(/C=C/C(=O)O)cc(OC)c1O [SINAPINATE] | 1.14 mmol
10 | 4.42 | CCCCCCCCCCCCCCCCCCOC(=O)/C=C/c1ccc(O)c(O)c1 | 1.02 mmol
11 | 4.50 | CCCCCCCCCCCCCCOC(=O)/C=C/c1ccc(O)c(O)c1 | 0.98 mmol
12 | 3.93 | CCCCCCCCCCCCCCCCCCOC(=O)/C=C/c1ccc(O)c(OC)c1 | 1.8 mmol
